Test results published in patent US4265885A, “Anthracyclines containing branched-chain amino-deoxy sugars” (Farmitalia Carlo Erba S.p.A., priority 1978, dated 1981).
In brackets after ≈: the same amount, converted by molar mass. Like-named read-outs stand apart in the source and are kept apart here.

Legend:
HeLa cells = assay: Activity on HeLa cells viability in vitro; format: cell-based; details: Homo sapiens, read-out: ID50 (Inhibiting Dose 50%)
P 388 leukemia = assay: Activity against P 388 leukemia in mice (survival); format: in vivo; details: as hydrochloride
Experimental: (§1) The new anthracycline glycosides described in the invention, display antitumor activity. The compounds have been tested against HeLa cells "in vitro" (time of exposure to the drugs: 24 hours) and on P 388 leukemia in mice in comparison with daunorubicin and doxorubicin. The results of the "in vitro" tests, shown in Table I are reported as ID50 (Inhibiting Dose 50% in ng/ml).
(§2) The antitumor activity was tested "in vivo" on P 388 leukemia in comparison with daunorubicin and doxorubicin.
(§3) ^(a) Mice were treated i.p. on day 1 after tumor cell inoculation.
^(b) Median survival time of treated mice, over median survival time

[1] = Toxic deaths in mice treated in the P 388 leukemia test; format: in vivo; details: as hydrochloride
Experimental: as §1, §2, §3

[2] = HeLa cells viability in vitro, time of exposure to the drugs: 24 hours, compounds as hydrochloride
[3] = dose 4.4 mg/kg i.p. on day 1 after tumor cell inoculation
[4] = dose 6.6 mg/kg i.p. on day 1 after tumor cell inoculation
[5] = dose 10.0 mg/kg i.p. on day 1 after tumor cell inoculation
[6] = dose 22.5 mg/kg i.p. on day 1 after tumor cell inoculation
[7] = dose 33.7 mg/kg i.p. on day 1 after tumor cell inoculation
[8] = dose 50.5 mg/kg i.p. on day 1 after tumor cell inoculation
[9] = dose 2.9 mg/kg i.p. on day 1 after tumor cell inoculation

COc1cccc2c1C(=O)c1c(O)c3c(c(O)c1C2=O)C[C@@](O)(C(=O)CO)C[C@@H]3O[C@H]1C[C@H](N)[C@](C)(OC)[C@H](C)O1 [4'-C-Methyl-4'-O-methyl-adriamycin]
IC50 (HeLa cells; [2]): 0.005 µg/mL (≈ 0.00875 µM) | T/C (median survival time of treated mice over median survival time of control × 100) (P 388 leukemia; [3]): 165% | T/C (median survival time of treated mice over median survival time of control × 100) (P 388 leukemia; [4]): 172% | T/C (median survival time of treated mice over median survival time of control × 100) (P 388 leukemia; [5]): 202% | No. of toxic deaths/total [1, 3]: 0/10 | No. of toxic deaths/total [1, 4]: 0/10 | No. of toxic deaths/total [1, 5]: 2/17

COc1cccc2c1C(=O)c1c(O)c3c(c(O)c1C2=O)C[C@@](O)(C(C)=O)C[C@@H]3O[C@H]1C[C@H](N)[C@](C)(OC)[C@H](C)O1 [4'-C-methyl-4'-O-methyl-daunorubicin (V), 4'-C-Methyl-4'-O-methyl-daunomycin]
IC50 (HeLa cells; [2]): 0.034 µg/mL (≈ 0.0612 µM) | T/C (median survival time of treated mice over median survival time of control × 100) (P 388 leukemia; [4]): 140% | T/C (median survival time of treated mice over median survival time of control × 100) (P 388 leukemia; [6]): 155% | T/C (median survival time of treated mice over median survival time of control × 100) (P 388 leukemia; [7]): 150% | T/C (median survival time of treated mice over median survival time of control × 100) (P 388 leukemia; [8]): 137% | No. of toxic deaths/total [1, 4]: 0/18 | No. of toxic deaths/total [1, 6]: 0/20 | No. of toxic deaths/total [1, 7]: 0/26 | No. of toxic deaths/total [1, 8]: 1/5

COc1cccc2c1C(=O)c1c(O)c3c(c(O)c1C2=O)C[C@@](O)(C(=O)CO)C[C@@H]3O[C@H]1C[C@H](N)[C@@](C)(OC)[C@H](C)O1 [4'-Epi-4'-C-methyl-4'-O-methyl-adriamycin]
IC50 (HeLa cells; [2]): 0.027 µg/mL (≈ 0.0472 µM) | T/C (median survival time of treated mice over median survival time of control × 100) (P 388 leukemia; [3]): 165% | T/C (median survival time of treated mice over median survival time of control × 100) (P 388 leukemia; [4]): 185% | T/C (median survival time of treated mice over median survival time of control × 100) (P 388 leukemia; [5]): 205% | No. of toxic deaths/total [1, 3]: 0/8 | No. of toxic deaths/total [1, 4]: 0/8 | No. of toxic deaths/total [1, 5]: 0/8

COc1cccc2c1C(=O)c1c(O)c3c(c(O)c1C2=O)C[C@@](O)(C(C)=O)C[C@@H]3O[C@H]1C[C@H](N)[C@@](C)(OC)[C@H](C)O1 [4'-Epi-4'-C-methyl-4'-O-methyl-daunomycin]
IC50 (HeLa cells; [2]): 0.0025 to 0.0034 µg/mL (≈ 0.0045 to 0.00612 µM) | T/C (median survival time of treated mice over median survival time of control × 100) (P 388 leukemia; [4]): 140% | T/C (median survival time of treated mice over median survival time of control × 100) (P 388 leukemia; [5]): 147% | T/C (median survival time of treated mice over median survival time of control × 100) (P 388 leukemia; [6]): 150% | No. of toxic deaths/total [1, 4]: 0/8 | No. of toxic deaths/total [1, 5]: 0/8 | No. of toxic deaths/total [1, 6]: 0/8

COc1cccc2c1C(=O)c1c(O)c3c(c(O)c1C2=O)C[C@@](O)(C(C)=O)C[C@@H]3O[C@H]1C[C@H](N)[C@H](O)[C@H](C)O1 [Daunorubicin, reference compound]
IC50 (HeLa cells; HeLa, 24 h): 0.01 µg/mL (≈ 0.019 µM) | T/C (median survival time of treated mice over median survival time of control × 100) (P 388 leukemia; [9]): 163% | T/C (median survival time of treated mice over median survival time of control × 100) (P 388 leukemia; [3]): 161% | T/C (median survival time of treated mice over median survival time of control × 100) (P 388 leukemia; [4]): 156% | No. of toxic deaths/total [1, 9]: 0/48 | No. of toxic deaths/total [1, 3]: 3/48 | No. of toxic deaths/total [1, 4]: 28/48

COc1cccc2c1C(=O)c1c(O)c3c(c(O)c1C2=O)C[C@@](O)(C(=O)CO)C[C@@H]3O[C@H]1C[C@H](N)[C@H](O)[C@H](C)O1 [Doxorubicin, reference compound]
IC50 (HeLa cells; HeLa, 24 h): 0.01 µg/mL (≈ 0.0184 µM) | T/C (median survival time of treated mice over median survival time of control × 100) (P 388 leukemia; [3]): 190% | T/C (median survival time of treated mice over median survival time of control × 100) (P 388 leukemia; [4]): 201% | T/C (median survival time of treated mice over median survival time of control × 100) (P 388 leukemia; [5]): 241% | No. of toxic deaths/total [1, 3]: 0/28 | No. of toxic deaths/total [1, 4]: 0/28 | No. of toxic deaths/total [1, 5]: 5/28
